Experiments:
[1] = test system: Puccinia recondita f. sp. tritici; assay: Example A2: fungicidal activity against Puccinia recondita f. sp. tritici / wheat / leaf disc curative (brown rust); assay type: in vivo; details: foliar, 24 h, 200 ppm in the applied formulation, curative (applied 1 day after inoculation), wheat leaf segments, read-out: disease control
Description: (§1) Leaf disks or leaf segments of various plant species are cut from plants grown in a greenhouse. The cut leaf disks or segments are placed in multiwell plates (24-well format) onto water agar. The leaf disks are sprayed with a test solution before (preventative) or after (curative) inoculation. Compounds to be tested are prepared as DMSO solutions (max. 10 mg/mL) which are diluted to the appropriate concentration with 0.025% Tween20 just before spraying. The inoculated leaf disks or segments are incubated under defined conditions (temperature, relative humidity, light, etc.) according to the respective test system. A single evaluation of disease level is carried out 3 to 14 days after inoculation, depending on the pathosystem. Percent disease control relative to the untreated check leaf disks or segments is then calculated.
Wheat leaf segments cv. Kanzler are placed on agar in multiwell plates (24-well format). The leaf segments are then inoculated with a spore suspension of the fungus. Plates were stored in darkness at 19° C. and 75% relative humidity. The formulated test compound diluted in water was applied 1 day after inoculation. The leaf segments were incubated at 19° C. and 75% relative humidity under a light regime of 12 hours light/12 hours darkness in a climate cabinet and the activity of a compound was assessed as percent disease control compared to untreated when an appropriate level of disease damage appears in untreated check leaf segments (6 to 8 days after application).

[2] = test system: Puccinia recondita f. sp. tritici; assay: Example A1: fungicidal activity against Puccinia recondita f. sp. tritici / wheat / leaf disc preventative (brown rust); assay type: in vivo; details: foliar, 200 ppm in the applied formulation, wheat leaf segments, compared to untreated, read-out: disease control
Description: as §1
Wheat leaf segments cv. Kanzler were placed on agar in multiwell plates (24-well format) and sprayed with the formulated test compound diluted in water. The leaf disks were inoculated with a spore suspension of the fungus 1 day after application. The inoculated leaf segments were incubated at 19° C. and 75% relative humidity (rh) under a light regime of 12 hours light/12 hours darkness in a climate cabinet and the activity of a compound was assessed as percent disease control compared to untreated when an appropriate level of disease damage appears in untreated check leaf segments (7 to 9 days after application).

[3] = test system: Glomerella lagenarium (Colletotrichum lagenarium); assay: Example A4: fungicidal activity against Glomerella lagenarium (Colletotrichum lagenarium) liquid culture / cucumber / preventative (anthracnose); assay type: cell-based; details: Colletotrichum orbiculare, 20 ppm in the applied formulation, growth measured photometrically 3 to 4 days after application, read-out: disease control
Description: Mycelia fragments or conidia suspensions of a fungus prepared either freshly from liquid cultures of the fungus or from cryogenic storage, are directly mixed into nutrient broth. DMSO solutions of the test compound (max. 10 mg/mL) are diluted with 0.025% Tween20 by a factor of 50 and 10 μL of this solution is pipetted into a microtiter plate (96-well format). The nutrient broth containing the fungal spores/mycelia fragments is then added to give an end concentration of the tested compound. The test plates are incubated in the dark at 24° C. and 96% relative humidity. The inhibition of fungal growth is determined photometrically after 2 to 7 days, depending on the pathosystem, and percent antifungal activity relative to the untreated check is calculated. Conidia of the fungus from cryogenic storage are directly mixed into nutrient broth (PDB—potato dextrose broth). After placing a (DMSO) solution of test compound into a microtiter plate (96-well format), the nutrient broth containing the fungal spores is added.

Phakopsora pachrhizi = assay: Example A3: fungicidal activity against Phakopsora pachrhizi / soybean / leaf disc preventative (Asian soybean rust); assay type: in vivo; details: Phakopsora pachyrhizi, foliar, 200 ppm in the applied formulation, soybean leaf disks, read-out: disease control
Description: as §1
Soybean leaf disks are placed on water agar in multiwell plates (24-well format) and sprayed with the formulated test compound diluted in water. One day after application leaf discs are inoculated by spraying a spore suspension on the lower leaf surface. After an incubation period in a climate cabinet of 24-36 hours in darkness at 20° C. and 75% rh leaf disc are kept at 20° C. with 12 h light/day and 75% rh. The activity of a compound is assessed as percent disease control compared to untreated when an appropriate level of disease damage appears in untreated check leaf disks (12 to 14 days after application).

| SMILES | melting point | pest or weed control at 200 ppm [1] | pest or weed control at 200 ppm [2] | inhibition of growth at 20 ppm [3] | pest or weed control at 200 ppm (Phakopsora pachrhizi) |
| --- | --- | --- | --- | --- | --- |
| CONC(=O)c1cnn(Cc2ccc(-c3noc(C(F)(F)F)n3)cc2)c1 [X.17, N-methoxy-1-[[4-[5-(trifluoromethyl)-1,2,4-oxadiazol-3-yl]phenyl]methyl]pyrazole-4-carboxamide] | 128 to 138 °C | ≥ 80% | ≥ 80% | ≥ 80% | ≥ 80% |
| CCNC(=O)c1cnn(Cc2ccc(-c3noc(C(F)(F)F)n3)cc2)c1 [X.18, N-ethyl-1-[[4-[5-(trifluoromethyl)-1,2,4-oxadiazol-3-yl]phenyl]methyl]pyrazole-4-carboxamide] | 166 to 176 °C | ≥ 80% | ≥ 80% | ≥ 80% | ≥ 80% |

Reference: US20200315176A1, “FUNGICIDAL COMPOSITIONS” (SYNGENTA PARTICIPATIONS AG, priority 2017, published 2020)
